Test results published in article PMC3024946, “Hydroxyproline-containing collagen analogs trigger the release and activation of collagen-sequestered proMMP-2 by competition with prodomain-derived peptide P33-42” (Fibrogenesis & Tissue Repair, 2011).

Tests used:
[1] = tested on: ProMMP-2; assay: Solid-phase binding of [125I]-proMMP-2 to immobilized collagens/peptides (microwells); design: species or system human; details: for Binding of [125I]-MMPs: ProMMP-2, 2 ng/well, coated wells, 4°C, 2 h, residual radioactivity, mean ± SD, at least five experiments in triplicate
Method: (§1) Human recombinant proMMPs and in vitro activated MMPs were obtained from Invitek and were labeled with the [^125I]-Bolton-Hunter reagent according to the manufacturer's instructions (PerkinElmer, Rodgau, Germany) before the buffer was exchanged for phosphate-buffered saline (PBS) with 0.05% (vol/vol) Tween 20 by gel filtration as described previously. Specific radioactivity for [^125I]-MMPs was 3-9 × 10^4 cpm/ng. Precipitation with 10% (wt/vol) trichloroacetic acid and 200 μg of BSA recovered 96% to 100% of protein-bound radioactivity. Aliquots of labeled MMPs were frozen and stored at -80°C. The activity and integrity were checked by substrate gel zymography using SDS-PAGE and autoradiography with overnight exposure to Biomax MS film (Kodak, Stuttgart, Germany) (Figure 2A).
(§2) Native human CI, CIII and CVI were purified from skin tissue and placenta. The CI single chains α1(I) and α2(I) were obtained and modified as described previously. To prepare defined fragments, 2 mg of α1(I) were dissolved in 1 ml of 70% (vol/vol) formic acid at room temperature, the tubes were flushed with nitrogen for 10 min, and then 2 mg of CB were added. After incubation for 4 h at 37°C, free CB was neutralized and the samples were lyophilized. The peptides CB3, CB6, CB7 and CB8 were separated from the reaction mixture by gel filtration followed by ion-exchange chromatography. The resulting peptides were characterized by amino acid analysis and SDS-PAGE [45, 46]. The CB peptides had the following melting temperatures: CB3, 23.9°C; CB6, 26.7°C; CB7, 28.1°C; and CB8, 28.0°C [31].
(§3) The following collagen analogs and control peptides were synthesized as described previously: (GPO)10, H-Gly-Cys-Hyp-(Gly-Pro-Hyp)10-Gly-Cys-Hyp-Gly-NH2; (GPP)10, H-Gly-Cys-Pro-(Gly-Pro-Pro)10-Gly-Cys-Pro-Gly-NH2; and GAP, H-Gly-Ala-Cys-(Gly-Ala-Pro)5-Gly-Phe-Hyp-Gly-Glu-Arg-(Gly-Ala-Pro)5-NH2. Peptides (POG)10, (PPG)10 and (POG)5 were purchased from Peptide International (Louisville, KY, USA). Spontaneous triple-helix assembly was approved by polarimetry over a 10-cm path length at 1°C/min in 10 mM phosphate buffer, pH 7.4. At 5 mg/ml, midpoints of melting curves occurred at 82.3 ± 1.4°C for (GPO)10 and at 45.8 ± 0.8°C for (GPP)10. […] Graphs were calculated from the primary data using a custom fitting program written by D.A. Slatter (Department of Biochemistry, University of Cambridge, Cambridge, UK [48]) to model different possible transitions. All collagens, CI derivatives and peptides were stored in stock solutions of 2 mg/ml in 150 mM acetic acid at -20°C.
(§4) ProMMP-2 and proMMP-9 or actMMP-2 and actMMP-9 were bound to nitrocellulose and polystyrene-immobilized native collagens, CI chains, CB peptides or structural analogs. Serial dilutions of collagens or CI derivatives in 150 mM acetic acid were dotted at 3 × 3 μl to a nitrocellulose membrane with high protein-binding capacity (GE Healthcare, Munich, Germany). Air-dried membranes were blocked with PBS and 0.3% (vol/vol) Tween 20 overnight at 4°C, washed three times, and incubated with 1 ng/ml [^125I]-pro- and actMMP-2 and pro- and actMMP-9 in PBS and 0.3% (vol/vol) Tween 20 for 2 h at room temperature. Membranes were washed again and air-dried, and bound MMP was monitored by autoradiography. In parallel, polystyrene microtiter plates (Dynex, Chantilly, VA, USA) were coated with collagen proteins and peptides. Here 2 μg/well or 200 ng/well proteins and peptides or BSA as control were immobilized in 100 μl of 50 mM ammonium bicarbonate buffer, pH 9.6, by overnight incubation at 4°C. Immobilization efficacies were 20% to 45% of total proteins. Wells were washed three times with PBS, and nonspecific binding sites were blocked with PBS and 0.05% (vol/vol) Tween 20 for 1 h at room temperature. All incubation steps were performed with 2 ng of [^125I]-MMPs at 4°C for 2 h. […]

[2] = tested on: ActMMP-9; assay: Solid-phase binding of [125I]-actMMP-9 to immobilized collagens/peptides (microwells); design: species or system human; details: ActMMP-9, 2 ng/well; coated wells; 4°C, 2 h; residual radioactivity; mean ± SD, at least five experiments in triplicate
Method: as §1, §2, §3, §4

[3] = Triple-helix melting temperature; assay type: physicochemical; details: polarimetry; 5 mg/ml; 10 mM phosphate buffer, pH 7.4, 1°C/min
Method: as §2, §3

Row | Binding of [125I]-MMPs [1] | interaction with control peptides ([1]; pro- and act-forms of MMP-2 and MMP-9, in words) | Binding of [125I]-MMPs [2] | midpoint of melting curve [3] [°C] | binding of proMMP vs respective actMMP ([1]; proMMP-2 vs actMMP-2 (stated jointly for MMP-2 and MMP-9)) | Substance
1 | 3.6 ± 2.0 % of maximum control | only marginal interactions | 0.9 ± 0.4 % of maximum control | 45.8 ± 0.8 |  | H-Gly-Cys-Pro-(Gly-Pro-Pro)10-Gly-Cys-Pro-Gly-NH2 [(GPP)10, Triple-helical Gly-Pro-Pro (GPP)10, devoid of Hyp]
2 | 13.0 ± 3.5 % of maximum control |  | 5.4 ± 0.6 % of maximum control | 82.3 ± 1.4 | two- to sevenfold more strongly | H-Gly-Cys-Hyp-(Gly-Pro-Hyp)10-Gly-Cys-Hyp-Gly-NH2 [(GPO)10, triple-helical Hyp-containing collagen analog]
